Measured values reported in patent US20110009335A1, “Anticancer Treatments” (priority 2008, published 2011).
Starred links: 1 amine or outer side, 2 acyl side, 3 side chain; linkers in the order of their positions; H or OH if unused. Positions of bridges follow the written chain, without caps; N, C: chain ends. Non-standard residues stand in square brackets, D forms with d. Residues, ends and D or L forms follow the SMILES beside them. *: point of attachment. X1 = CC[C@H](C)[C@@H](N[*:1])[C@@H](O)CC(=O)O[C@H](C(=O)[C@H](C)C(=O)[*:2])C(C)C; NMeY = CN[C@@H](Cc1ccc(O)cc1)C(=O)O; dNMeL = CN[C@H](CC(C)C)C(=O)O; Pyruvoyl = CC(=O)C(=O)*

How the values were obtained:
[1] = tested on: LOX-IMVI human melanoma xenograft; experiment: Aplidine with sorafenib, LOX-IMVI xenograft in athymic nude mice (Example 7); assay type: in vivo; conditions: for % Inhibition G2: aplidine 0.06 mg/kg/day; for antitumor activity as single agent (monotherapy): doses tested; for % Inhibition G4: sorafenib 30 mg/kg/day; for % Inhibition G3: sorafenib 60 mg/kg/day
Source text: Female athymic nude mice (Harlan Sprague Dawley, Madison, Wis.) were utilized for all experiments. Mice were implanted with a tumor fragment when mice were 6-8 weeks of age. Animals were housed in ventilated rack caging with food and water ad libitum. The mice were acclimated for at least 5 days prior to tumor implantation.
The tumor model used in this study was LOX-IMVI, which is a human melanoma cell line obtained from the Department of Developmental Therapeutics, National Cancer Institute (NCI). Animals were implanted subcutaneously (SC) on the right flank, using a 13 gauge trocar, with 2 mm^3 of tissue tumor fragments of LOX-IMVI, from an in vivo transplantable line passage 1, using sterile Earle's Balanced Salt solution as a wetting agent.
Tumor measurements were determined as disclosed in Example 1. When tumor growth was within an average size range of 130±44 mg (mean±SD), mice were randomized into the treatment and control groups based on tumor weight by using LabCat® In Life module V 8.0 SP1 tumor tracking and measurement software.
The treatment of LOX-IMVI-tumor-bearing mice was initiated on DPI (Day Post Implantation) 11. Body weights were recorded on treatment days and when tumor sizes were measured. In those days wherein the two drugs were administered the same day, the combination therapy groups were treated by co-administering the two drugs at the same time, with no attempt to sequence the treatments.
(§1) Aplidine was provided in the form of vials of lyophilized aplidine powder which was reconstituted in Cremophor EL/ethanol/water (CEW) 15/15/70 to a concentration of 0.5 mg/ml. The aplidine solution in CEW was diluted in 0.9% Saline to the dosing formulation concentrations, being the final proportion of CEW of 0.18/0.18/0.84.
Tumor size measurements were recorded twice weekly from the treatment initiation until the termination of the study.
(§2) Mean, standard deviation and standard error of the mean were determined for tumor volume for all animal groups at all assessments. Student's t test was performed on tumor volumes at each measurement day, including at the end of the study, to determine whether there were any statistically significant differences between combination treatment groups and single monotherapy treatment groups.
(§3) The definition and criteria for the evaluation of potentiation and the degree of additivity for the combination therapy were the same as those disclose in Example 1.

[2] = tested on: NCI-H-460 human NSCLC xenograft; experiment: Aplidine with temsirolimus, NCI-H-460 xenograft in athymic nude mice (Example 5); assay type: in vivo; conditions: for % Inhibition G2: aplidine 0.06 mg/kg/day; for antitumor activity as single agent (monotherapy): temsirolimus 10 and 20 mg/kg/day; for % Inhibition G4: temsirolimus 10 mg/kg/day; for % Inhibition G3: temsirolimus 20 mg/kg/day
Method: Female athymic nude mice (Harlan Sprague Dawley, Madison, Wis.) were utilized for all experiments. Mice were implanted with a cell suspension when mice were 6-8 weeks of age. Animals were housed in ventilated rack caging with food and water ad libitum. The mice were acclimated for at least 5 days prior to tumor implantation.
The tumor model used in this study was NCI-H-460, which is a human NSCLC cell line obtained from the ATCC (Manassas, Va.). NCI-H-460 cells were grown in RPMI-1640 medium, 10% FBS, 10 mM Hepes, 1 mM sodium pyruvate, 4.5 g/l glucose, 1.5 g/l sodium bicarbonate and 2 mM L-glutamine. Cells from in vitro passage 11 were implanted SC into study mice: 5×10^6 cells/mouse in 0.2 ml 50% Matrigel/50% medium without antibiotics or serum, using a 23 G needle and 1 cc syringe.
Tumor measurements were determined as disclosed in Example 1. When tumor growth was within an average size range of 110±25 mg (mean±SD), mice were randomized into the treatment and control groups based on tumor weight by using LabCat® In Life module V 8.0 SP1 tumor tracking and measurement software.
The treatment of NCI-H-460-tumor-bearing mice was initiated on DPI (Day Post Implantation) 7. Body weights were recorded on treatment days and when tumor sizes were measured. In those days wherein the two drugs were administered the same day, the combination therapy groups were treated by co-administering the two drugs at the same time, with no attempt to sequence the treatments.
as §1
Temsirolimus was provided in the form of vials containing a non-aqueous, ethanolic, sterile solution of temsirolimus, 25 mg/ml. […] Then, the solution was further diluted in 0.9% Saline to the dosing formulation concentrations.
Tumor size measurements were recorded twice weekly from the treatment initiation until the termination of the study. Tumor growth inhibition was assessed comparing the mean tumor weight between the two agents in combination (aplidine and temsirolimus) against temsirolimus mean tumor weight at the different concentrations assayed.
as §2, §3

[3] = G2: aplidine 0.060 mg/kg/day IP
[4] = G3: temsirolimus 20 mg/kg/day IP
[5] = G4: temsirolimus 10 mg/kg/day IP

`CC[C@H](C)[C@H]1NC(=O)[C@@H](NC(=O)[C@@H](CC(C)C)N(C)C(=O)[C@@H]2CCCN2C(=O)C(C)=O)[C@@H](C)OC(=O)[C@H](Cc2ccc(OC)cc2)N(C)C(=O)[C@@H]2CCCN2C(=O)[C@H](CC(C)C)NC(=O)[C@@H](C)C(=O)[C@H](C(C)C)OC(=O)C[C@@H]1O` [aplidine, dehydrodidemnin B] (Pyruvoyl-P[dNMeL]T[X1]LP[NMeY](Me); ester 3-C) was tested, and the “% T/C on day 11” value [1, 3] was 102.9%, the “% T/C on day 14” value [1, 3] was 82.9% and the “% T/C on day 18” value [1, 3] was 79.3%. The “% T/C on day 20” value [1, 3] was 98.5%, the “% T/C on day 22” value [1, 3] was 102.0% and the “% T/C on day 25” value [1, 3] was 105.4%. The “% Inhibition G2” value ([1]; day 11) was −2.9%, the “% Inhibition G2” value ([1]; day 14) was 17.1% and the “% Inhibition G2” value ([1]; day 18) was 20.7%. For the same compound, the “% Inhibition G2” value ([1]; day 20) was 1.5%, the “% Inhibition G2” value ([1]; day 22) was −2.0% and the “% Inhibition G2” value ([1]; day 25) was −5.4%. For the same compound, the “antitumor activity as single agent (monotherapy)” value (shortened to “antitumor activity”) [1] was “inactive”, the “% T/C on day 7” value [2, 3] was 101.2% and the “% T/C on day 10” value [2, 3] was 95.5%. The “% T/C on day 13” value [2, 3] was 73.2%, the “% T/C on day 16” value [2, 3] was 77.4% and the “% T/C on day 20” value [2, 3] was 88.5%. The “% T/C on day 23” value [2, 3] was 84.3%, the “% T/C on day 27” value [2, 3] was 86.4% and the “% T/C on day 29” value [2, 3] was 96.9%. For the same compound, the “% T/C on day 31” value [2, 3] was 96.0%, the “% Inhibition G2” value ([2]; day 7) was −1.2% and the “% Inhibition G2” value ([2]; day 10) was 4.5%. For the same compound, the “% Inhibition G2” value ([2]; day 13) was 26.8%, the “% Inhibition G2” value ([2]; day 16) was 22.6% and the “% Inhibition G2” value ([2]; day 20) was 11.5%. The “% Inhibition G2” value ([2]; day 23) was 15.7%, the “% Inhibition G2” value ([2]; day 27) was 13.6% and the “% Inhibition G2” value ([2]; day 29) was 3.1%. The “% Inhibition G2” value ([2]; day 31) was 4.0% and the “antitumor activity” value [2] was “inactive”.

For `CO[C@H]1C[C@@H]2CC[C@@H](C)[C@@](O)(O2)C(=O)C(=O)N2CCCC[C@H]2C(=O)O[C@H]([C@H](C)C[C@@H]2CC[C@@H](OC(=O)C(C)(CO)CO)[C@H](OC)C2)CC(=O)[C@H](C)/C=C(\C)[C@@H](O)[C@@H](OC)C(=O)[C@H](C)C[C@H](C)/C=C/C=C/C=C/1C` [temsirolimus], the “% T/C on day 7” value [2, 4] was 98.2%, the “% T/C on day 10” value [2, 4] was 41.2% and the “% T/C on day 13” value [2, 4] was 30.5%. The “% T/C on day 16” value [2, 4] was 30.9%, the “% T/C on day 20” value [2, 4] was 26.3% and the “% T/C on day 23” value [2, 4] was 27.4%. For the same compound, the “% T/C on day 27” value [2, 4] was 35.6%, the “% T/C on day 29” value [2, 4] was 48.2% and the “% T/C on day 31” value [2, 4] was 56.8%. For the same compound, the “% T/C on day 7” value [2, 5] was 102.1%, the “% T/C on day 10” value [2, 5] was 49.9% and the “% T/C on day 13” value [2, 5] was 37.1%. For the same compound, the “% T/C on day 16” value [2, 5] was 34.1%, the “% T/C on day 20” value [2, 5] was 30.9% and the “% T/C on day 23” value [2, 5] was 31.4%. For the same compound, the “% T/C on day 27” value [2, 5] was 42.6%, the “% T/C on day 29” value [2, 5] was 57.8% and the “% T/C on day 31” value [2, 5] was 60.3%. The “% Inhibition G4” value ([2]; day 7) was −2.1%, the “% Inhibition G4” value ([2]; day 10) was 50.1% and the “% Inhibition G4” value ([2]; day 13) was 62.9%. The “% Inhibition G4” value ([2]; day 16) was 65.9%, the “% Inhibition G4” value ([2]; day 20) was 69.1% and the “% Inhibition G4” value ([2]; day 23) was 68.6%. The “% Inhibition G4” value ([2]; day 27) was 57.4%, the “% Inhibition G4” value ([2]; day 29) was 42.2% and the “% Inhibition G4” value ([2]; day 31) was 39.7%. The “% Inhibition G3” value ([2]; day 7) was 1.8%, the “% Inhibition G3” value ([2]; day 10) was 58.8% and the “% Inhibition G3” value ([2]; day 13) was 69.5%. The “% Inhibition G3” value ([2]; day 16) was 69.1%, the “% Inhibition G3” value ([2]; day 20) was 73.7% and the “% Inhibition G3” value ([2]; day 23) was 72.6%. The “% Inhibition G3” value ([2]; day 27) was 64.4%, the “% Inhibition G3” value ([2]; day 29) was 51.8% and the “% Inhibition G3” value ([2]; day 31) was 43.2%. The “antitumor activity” value [2] was “meeting the NCI criteria for activity”.

For `CNC(=O)c1cc(Oc2ccc(NC(=O)Nc3ccc(Cl)c(C(F)(F)F)c3)cc2)ccn1` [sorafenib], the “% T/C on day 11” value ([1]; G3: sorafenib 60 mg/kg/day PO) was 98.6%, the “% T/C on day 14” value ([1]; G3: sorafenib 60 mg/kg/day PO) was 101.2% and the “% T/C on day 18” value ([1]; G3: sorafenib 60 mg/kg/day PO) was 77.7%. For the same compound, the “% T/C on day 20” value ([1]; G3: sorafenib 60 mg/kg/day PO) was 71.7%, the “% T/C on day 22” value ([1]; G3: sorafenib 60 mg/kg/day PO) was 64.8% and the “% T/C on day 25” value ([1]; G3: sorafenib 60 mg/kg/day PO) was 73.3%. The “% T/C on day 14” value ([1]; G4: sorafenib 30 mg/kg/day PO) was 96.9%, the “% T/C on day 18” value ([1]; G4: sorafenib 30 mg/kg/day PO) was 77.4% and the “% T/C on day 20” value ([1]; G4: sorafenib 30 mg/kg/day PO) was 75.9%. For the same compound, the “% T/C on day 22” value ([1]; G4: sorafenib 30 mg/kg/day PO) was 77.3%, the “% T/C on day 25” value ([1]; G4: sorafenib 30 mg/kg/day PO) was 93.4% and the “antitumor activity” value [1] was “inactive”. For the same compound, the “% Inhibition G4” value ([1]; day 11) was −2.1%, the “% Inhibition G4” value ([1]; day 14) was 3.1% and the “% Inhibition G4” value ([1]; day 18) was 22.6%. The “% Inhibition G4” value ([1]; day 20) was 24.1%, the “% Inhibition G4” value ([1]; day 22) was 22.7% and the “% Inhibition G4” value ([1]; day 25) was 6.6%. The “% Inhibition G3” value ([1]; day 11) was 1.4%, the “% Inhibition G3” value ([1]; day 14) was −1.2% and the “% Inhibition G3” value ([1]; day 18) was 22.3%. For the same compound, the “% Inhibition G3” value ([1]; day 20) was 28.3%, the “% Inhibition G3” value ([1]; day 22) was 35.2% and the “% Inhibition G3” value ([1]; day 25) was 26.7%.
